Experimental data as given in patent US20040014706A1, “Use of carp inhibitors for the treatment of heart diseases” (priority 2000, published 2004).

Assays:
CARP mRNA [1] = experiment: CARP mRNA expression in left ventricular myocardium of treated rats, Northern blot; assay type: in vivo, Male Wistar rats; conditions: 2.4 mg/kg/d, 4 days
Experimental: (§1) Male Wistar rats were treated with isoprenaline (ISO, 2.4 mg/kg/d, Alzet mini pump) for 4 days. Controls were infused with NaCl. […] To gain further insight into the mechanism by which CARP expression is regulated, isolated myocytes were treated with ISO (1 μM) and phenylephrine (PE, 50 μM). For comparison the effects of the alpha-adrenoceptor agonist phenylephrine (PE, 50 μM) were studied.

CARP protein [2] = experiment: CARP protein in treated rats, Western blot; assay type: in vivo, Male Wistar rats; conditions: 2.4 mg/kg/d, 4 days
Experimental: as §1

CARP protein [3] = experiment: CARP protein levels in isolated myocytes treated with adrenoceptor agonists; assay type: cell-based; conditions: ISO 1 μM, PE 50 μM, n=4
Experimental: as §1

[4] = Isoprenaline-induced cardiac hypertrophy in rats (heart weight/body weight); assay type: in vivo, Male Wistar rats; conditions: 2.4 mg/kg/d, Alzet mini pump, 4 days; vs NaCl controls
Experimental: as §1

CARP mRNA [5] = experiment: CARP mRNA levels in isolated myocytes treated with adrenoceptor agonists and kinase inhibitors; assay type: cell-based; conditions: for CARP mRNA/GAPDH mRNA: ISO 1 μM (n=9), PE 50 μM (n=11); for reversal of the effects of ISO and PE on CARP mRNA expression: ISO 1 μM, PE 50 μM
Experimental: as §1

| Structure (SMILES) | CARP/CSQ (CARP protein level) (CARP protein [3]) | CARP mRNA/GAPDH mRNA (CARP mRNA [5]) | reversal of the effects of ISO and PE on CARP mRNA expression (CARP mRNA [5]) | also measured |
| --- | --- | --- | --- | --- |
| CC(C)NCC(O)c1ccc(O)c(O)c1 (centres unmarked) [ISO, isoprenaline] | 161±10 % of control | 148±10 % of control |  | CARP mRNA/GAPDH mRNA (CARP mRNA [1]; LV myocardium, n=6, NaCl control 1.3±0.12): 3.1±0.5; increase in CARP mRNA expression in left ventricular (LV) myocardium (CARP mRNA [1]; Northern blot, vs NaCl): 140%; increase in CARP protein (CARP protein [2]; Western blot, vs NaCl): 50%; CARP/calsequestrin (CARP protein [2]; n=6, NaCl control 0.41±0.03): 0.61±0.07; increase in heart weight/body weight ratio [4]: 40% |
| CNC[C@H](O)c1cccc(O)c1 [PE, phenylephrine] | 172±7 % of control | 178±20 % of control |  |  |
| C[S+]([O-])c1ccc(-c2nc(-c3ccncc3)c(-c3ccc(F)cc3)[nH]2)cc1 (centres unmarked) [SB203580] |  |  | not |  |
| N#CC(=C(/N)Sc1ccccc1N)/C(C#N)=C(\N)Sc1ccccc1N [U0126] |  |  | completely reversed |  |
